The values below are quoted from earlier work in patent publication US20200281963A1, “HYDROGEN MOLECULE-CONTAINING PROPHYLACTIC OR THERAPEUTIC AGENT FOR OXIDATIVE DAMAGE IN INTRAOCULAR SURGERIES” (priority 2016, published 2020).

For the molecule `[HH]` [hydrogen molecules], under “in 1 L of water at 25° C. at 1 atm”, the “amount of hydrogen molecules that can be dissolved” value is 17.5 mL. The “amount of hydrogen molecules that can be dissolved (concentration)” value (water at 25° C. at 1 atm) is listed as “approximately 0.8 mM”.
